Here are results for 18 molecules from patent US12310975B2, “Modulators of BCL6 proteolysis and associated methods of use” (Arvinas Operations, Inc., priority 2019, dated 2025).

Like-named read-outs stand apart in the source and are kept apart here. Some results are limits rather than exact numbers.

The experiment addresses BCL6 (Homo sapiens (Human), UniProt P41182). Kind of experiment: Immunofluorescence high content imaging of BCL6 degradation in T47D cells. The class given is cell-based. To be noted: for DC50: class symbols A-D, read-out: EC50 (nM)*. In a few lines: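 T47D cells were treated 3 days at 37 °C with an 11-point 3-fold dilution series (top 0.1 or 1 μM), then fixed, permeabilized and immunostained for BCL6 with Alexa-488 secondary, CellMask and Hoechst. BCL6 signal was imaged at 10×, 4 fields/well, with top-hat smoothing.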

Take `CC(=O)COc1cc2cc(Nc3nc(N4CCC(OCCOCCOCCOCCOCCOc5ccc6c(c5)CN(C5CCC(=O)NC5=O)C6=O)CC4)ncc3Cl)ccc2n(C)c1=O` (stereo not drawn) [compound 98, 3-(5-((14-((1-(5-chloro-4-((1-methyl-2-oxo-3-(2-oxopropoxy)-1,2-dihydroquinolin-6-yl)amino)pyrimidin-2-yl)piperidin-4-yl)oxy)-3,6,9,12-tetraoxatetradecyl)oxy)-1-oxoisoindolin-2-yl)piperidine-2,6-dione]: the DC50 was 10 to 50 nM.

Under “T47D cells”, `CNC(=O)COc1cc2cc(Nc3nc(N4CCC5(CC4)CC(OC4CCN(c6cccc7c6CN(C6CCC(=O)NC6=O)C7=O)CC4)C5)ncc3Cl)ccc2n(C(C)C)c1=O` (stereo not drawn) [compound 427, 2-{[6-({5-chloro-2-[2-({1-[2-(2,6-dioxopiperidin-3-yl)-1-oxo-2,3-dihydro-1H-isoindol-4-yl]piperidin-4-yl}oxy)-7-azaspiro[3.5]nonan-7-yl]pyrimidin-4-yl}amino)-2-oxo-1-(propan-2-yl)-1,2-dihydroquinolin-3-yl]oxy}-N-methylacetamide] came in with a Dmax of no less than 70% and an IC50 of less than 10 nM.

Take `CNC(=O)COc1cc2cc(Nc3nc(N4CCC(OCCOCCOCCOc5cccc(CCOc6ccc7c(c6)CN(C6CCC(=O)NC6=O)C7=O)c5)CC4)ncc3Cl)ccc2n(C)c1=O` (stereo not drawn) [compound 100, 2-((6-((5-chloro-2-(4-(2-(2-(2-(3-(2-((2-(2,6-dioxopiperidin-3-yl)-1-oxoisoindolin-5-yl)oxy)ethyl)phenoxy)ethoxy)ethoxy)ethoxy)piperidin-1-yl)pyrimidin-4-yl)amino)-1-methyl-2-oxo-1,2-dihydroquinolin-3-yl)oxy)-N-methylacetamide]: the DC50 is greater than 100 nM.

Turning to `CNC(=O)COc1cc2cc(Nc3nc(N4CCC(c5ccc(OCCCOCCCOCCOc6ccc7c(c6)CN(C6CCC(=O)NC6=O)C7=O)cc5)CC4)ncc3Cl)ccc2n(C)c1=O` (stereo not drawn) [compound 125, 2-((6-((5-chloro-2-(4-(4-(3-(3-(2-((2-(2,6-dioxopiperidin-3-yl)-1-oxoisoindolin-5-yl)oxy)ethoxy)propoxy)propoxy)phenyl)piperidin-1-yl)pyrimidin-4-yl)amino)-1-methyl-2-oxo-1,2-dihydroquinolin-3-yl)oxy)-N-methylacetamide], the DC50 is greater than 100 nM.

`CCn1c(=O)c(OCC(=O)NC)cc2cc(Nc3nc(N4CCN(CC5CCN(c6cccc7c6C(=O)N(C6CCC(=O)NC6=O)C7=O)CC5)CC4)ncc3Cl)ccc21` (stereo not drawn) [compound 310, 2-{[6-({5-chloro-2-[4-({1-[2-(2,6-dioxopiperidin-3-yl)-1,3-dioxo-2,3-dihydro-1H-isoindol-4-yl]piperidin-4-yl}methyl)piperazin-1-yl]pyrimidin-4-yl}amino)-1-ethyl-2-oxo-1,2-dihydroquinolin-3-yl]oxy}-N-methylacetamide] displayed an IC50 of less than 10 nM. Besides, where the note is “T47D”, the Dmax is 50 to 70%.

In the case of `CNC(=O)COc1cc2cc(Nc3nc(N4CCC(OCCOCCOCCCOc5ccccc5CCOc5ccc6c(c5)CN(C5CCC(=O)NC5=O)C6=O)CC4)ncc3Cl)ccc2n(C)c1=O` (stereo not drawn) [compound 111, 2-((6-((5-chloro-2-(4-(2-(2-(3-(2-(2-((2-(2,6-dioxopiperidin-3-yl)-1-oxoisoindolin-5-yl)oxy)ethyl)phenoxy)propoxy)ethoxy)ethoxy)piperidin-1-yl)pyrimidin-4-yl)amino)-1-methyl-2-oxo-1,2-dihydroquinolin-3-yl)oxy)-N-methylacetamide], the DC50 is greater than 100 nM.

Regarding `CN1C(=O)CCc2cc(Nc3cc(OC4CCN(C5CCN(c6ccc7c(c6)C(=O)N(C6CCC(=O)NC6=O)C7=O)CC5)CC4)c([N+](=O)[O-])cc3Cl)ccc21` (stereo not drawn) [compound 79, 5-(4-(4-chloro-5-((1-methyl-2-oxo-1,2,3,4-tetrahydroquinolin-6-yl)amino)-2-nitrophenoxy)-[1,4′-bipiperidin]-1′-yl)-2-(2,6-dioxopiperidin-3-yl)isoindoline-1,3-dione], the DC50 was greater than 100 nM.

Where the note is “T47D cells”, `CNC(=O)COc1cc2cc(Nc3nc(N4C[C@@H](C)N(CC5CCN(c6cccc7c6C(=O)N(C6CCC(=O)NC6=O)C7=O)CC5)[C@@H](C)C4)ncc3Cl)ccc2n(C(C)C)c1=O` (stereo partly drawn) [compound 387, 2-{[6-({5-chloro-2-[(3R,5S)-4-({1-[2-(2,6-dioxopiperidin-3-yl)-1,3-dioxo-2,3-dihydro-1H-isoindol-4-yl]piperidin-4-yl}methyl)-3,5-dimethylpiperazin-1-yl]pyrimidin-4-yl}amino)-2-oxo-1-(propan-2-yl)-1,2-dihydroquinolin-3-yl]oxy}-N-methylacetamide] came in with a Dmax of 50 to 70% and an IC50 of less than 10 nM.

In the case of `CNC(=O)CCC1Oc2cc(Nc3nc(N4CCN(C(C)(C)C5CCN(c6ccc7c(c6)C(=O)N(C6CCC(=O)NC6=O)C7=O)CC5)CC4)ncc3Cl)ccc2N(C)C1=O` (stereo not drawn) [compound 287, 3-[7-({5-chloro-2-[4-(2-{1-[2-(2,6-dioxopiperidin-3-yl)-1,3-dioxo-2,3-dihydro-1H-isoindol-5-yl]piperidin-4-yl}propan-2-yl)piperazin-1-yl]pyrimidin-4-yl}amino)-4-methyl-3-oxo-3,4-dihydro-2H-1,4-benzoxazin-2-yl]-N-methylpropanamide], the IC50 is no less than 100 nM.

`CNC(=O)COc1cc2cc(Nc3nc(N4CCN(CC5CN(c6ccc7c(c6)C(=O)N(C6CCC(=O)NC6=O)C7=O)C5)CC4)ncc3Cl)ccc2n(C)c1=O` (stereo not drawn) [compound 246, 2-((6-((5-chloro-2-(4-((1-(2-(2,6-dioxopiperidin-3-yl)-1,3-dioxoisoindolin-5-yl)azetidin-3-yl)methyl)piperazin-1-yl)pyrimidin-4-yl)amino)-1-methyl-2-oxo-1,2-dihydroquinolin-3-yl)oxy)-N-methylacetamide] returned an IC50 of less than 10 nM. This molecule gave a Dmax (T47D) of no less than 70%.

In the case of `CNC(=O)COc1cc2cc(Nc3nc(N4CCN(CCCN5CCN(c6ccc7c(c6)CN(C6CCC(=O)NC6=O)C7=O)CC5)CC4)ncc3Cl)ccc2n(C)c1=O` (stereo not drawn) [compound 103, 2-((6-((5-chloro-2-(4-(3-(4-(2-(2,6-dioxopiperidin-3-yl)-1-oxoisoindolin-5-yl)piperazin-1-yl)propyl)piperazin-1-yl)pyrimidin-4-yl)amino)-1-methyl-2-oxo-1,2-dihydroquinolin-3-yl)oxy)-N-methylacetamide], the DC50 was in the range of 10 to 50 nM.

For `CNC(=O)COc1cc2cc(Nc3nc(N4CCC(OC5CCC6(CC5)CN(c5ccc7c(c5)C(=O)N(C5CCC(=O)NC5=O)C7=O)C6)CC4)ncc3Cl)ccc2n(C(C)C)c1=O` (stereo not drawn) [compound 421, 2-{[6-({5-chloro-2-[4-({2-[2-(2,6-dioxopiperidin-3-yl)-1,3-dioxo-2,3-dihydro-1H-isoindol-5-yl]-2-azaspiro[3.5]nonan-7-yl}oxy)piperidin-1-yl]pyrimidin-4-yl}amino)-2-oxo-1-(propan-2-yl)-1,2-dihydroquinolin-3-yl]oxy}-N-methylacetamide], for the setting “T47D cells”, the Dmax is no less than 70% and the IC50 is less than 10 nM.

`CC(=O)COc1cc2cc(Nc3nc(N4CCC(OC5CN(c6ccc7c(c6)C(=O)N(C6CCC(=O)NC6=O)C7=O)C5)CC4)ncc3Cl)ccc2n(C)c1=O` (stereo not drawn) [compound 178, 5-(3-((1-(5-chloro-4-((1-methyl-2-oxo-3-(2-oxopropoxy)-1,2-dihydroquinolin-6-yl)amino)pyrimidin-2-yl)piperidin-4-yl)oxy)azetidin-1-yl)-2-(2,6-dioxopiperidin-3-yl)isoindoline-1,3-dione] registered an IC50 of 10 to 50 nM. Moreover, for the setting “T47D”, the Dmax is less than 50%.

Take `CNC(=O)COc1cc2cc(Nc3nc(N4CCC(CCOC5CN(c6cccc7c6C(=O)N(C6CCC(=O)NC6=O)C7=O)C5)CC4)ncc3Cl)ccc2n(C)c1=O` (stereo not drawn) [compound 252, 2-((6-((5-chloro-2-(4-(2-((1-(2-(2,6-dioxopiperidin-3-yl)-1,3-dioxoisoindolin-4-yl)azetidin-3-yl)oxy)ethyl)piperidin-1-yl)pyrimidin-4-yl)amino)-1-methyl-2-oxo-1,2-dihydroquinolin-3-yl)oxy)-N-methylacetamide]: the IC50 was less than 10 nM. The Dmax (T47D) lay within 50 to 70%.

As to `CNC(=O)COc1cc2cc(Nc3nc(N4CCC(OCCOCCOc5ccc6c(c5)CN(C5CCC(=O)NC5=O)C6=O)CC4)ncc3Cl)ccc2n(C)c1=O` (stereo not drawn) [compound 61, 2-((6-((5-chloro-2-(4-(2-(2-((2-(2,6-dioxopiperidin-3-yl)-1-oxoisoindolin-5-yl)oxy)ethoxy)ethoxy)piperidin-1-yl)pyrimidin-4-yl)amino)-1-methyl-2-oxo-1,2-dihydroquinolin-3-yl)oxy)-N-methylacetamide], the DC50 lay in the range of 10 to 50 nM.

With `CC(=O)COc1cc2cc(Nc3nc(N4CC(OC5CCN(c6ccc7c(c6)C(=O)N(C6CCC(=O)NC6=O)C7=O)CC5)C4)ncc3Cl)ccc2n(C)c1=O` (stereo not drawn) [compound 183, 5-(4-((1-(5-chloro-4-((1-methyl-2-oxo-3-(2-oxopropoxy)-1,2-dihydroquinolin-6-yl)amino)pyrimidin-2-yl)azetidin-3-yl)oxy)piperidin-1-yl)-2-(2,6-dioxopiperidin-3-yl)isoindoline-1,3-dione], the IC50 was in the range of 10 to 50 nM. In addition, the Dmax (T47D) was less than 50%.

Molecule `CNC(=O)COc1cc2cc(Nc3nc(N4CCN(CC5CCN(c6ccc(C(=O)NC7CCC(=O)NC7=O)c(OC)c6)CC5)CC4)ncc3Cl)ccc2n(C)c1=O` (stereo not drawn) [compound 243, 4-(4-((4-(5-chloro-4-((1-methyl-3-(2-(methylamino)-2-oxoethoxy)-2-oxo-1,2-dihydroquinolin-6-yl)amino)pyrimidin-2-yl)piperazin-1-yl)methyl)piperidin-1-yl)-N-(2,6-dioxopiperidin-3-yl)-2-methoxybenzamide] yielded an IC50 of less than 10 nM. Moreover, under “T47D”, the Dmax is no less than 70%.

With `CNC(=O)COc1cc2cc(Nc3cc(N4CCN(CC5CCN(c6ccc7c(c6)C(=O)N(C6CCC(=O)NC6=O)C7=O)CC5)CC4)ncc3Cl)ccc2n(C)c1=O` (stereo not drawn) [compound 253, 2-((6-((5-chloro-2-(4-((1-(2-(2,6-dioxopiperidin-3-yl)-1,3-dioxoisoindolin-5-yl)piperidin-4-yl)methyl)piperazin-1-yl)pyridin-4-yl)amino)-1-methyl-2-oxo-1,2-dihydroquinolin-3-yl)oxy)-N-methylacetamide], the Dmax (T47D) was no less than 70%.

What is called Dmax is the largest share of the target that was removed. Higher therefore signals deep degradation. In general, IC50 refers to the concentration at which inhibition is half-maximal.
